In general, EC50 refers to the concentration at which the effect is half-maximal.

Molecules are shown by their SMILES.

This assay deals with T1, GPR119 receptor (Mesocricetus auratus, UniProt A0A1U8CD06).
T1 construct: which endogenously express the GPR119 receptor; host or cells: HIT-T15 hamster pancreatic islet cells
T1 sequence (A0A1U8CD06 1-334): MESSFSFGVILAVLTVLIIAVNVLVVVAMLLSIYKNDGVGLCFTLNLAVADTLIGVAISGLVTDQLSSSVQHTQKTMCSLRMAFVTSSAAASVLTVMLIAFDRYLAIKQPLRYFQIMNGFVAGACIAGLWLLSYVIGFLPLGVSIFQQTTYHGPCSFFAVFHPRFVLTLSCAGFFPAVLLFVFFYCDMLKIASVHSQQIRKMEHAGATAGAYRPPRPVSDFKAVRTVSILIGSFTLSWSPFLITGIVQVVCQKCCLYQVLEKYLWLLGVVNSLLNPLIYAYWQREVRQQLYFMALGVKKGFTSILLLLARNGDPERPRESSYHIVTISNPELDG
Description: cAMP assay in HIT-T15 hamster pancreatic islet cells (functional agonist activity). Type of assay: cell-based. Conditions: HIT-T15 cells endogenously expressing GPR119; 30 min at 25° C.; intracellular cAMP. The essentials: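 HIT-T15 cells (endogenous GPR119), 9000/well, exposed to agonist 30 min at 25° C with 0.5 mM IBMX and 0.5 mg/ml BSA. Lysate cAMP measured by chemiluminescent competitive immunoassay; EC50 from curve fit.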
Background: Changes in cAMP serve as a functional read-out for many G protein-coupled receptors.
As for `COC(=O)c1ccc(Oc2ncnc3c2cnn3C2CCN(C(=O)OC(C)(C)C)CC2)c(F)c1` [Example 63, 4-[4-(2-Fluoro-4-methoxycarbonyl-phenoxy)-pyrazolo[3,4-d]pyrimidin-1-yl]-piperidine-1-carboxylic acid tert-butyl ester], the EC50 is 0.42 µM. With `CCCCOC(=O)N1CCC(n2ncc3c(Oc4cccnc4C)ncnc32)CC1` [Example 104, 4-[4-(2-Methyl-pyridin-3-yloxy)-pyrazolo[3,4-d]pyrimidin-1-yl]-piperidine-1-carboxylic acid butyl ester], the EC50 came to 0.85 µM. In turn, `CS(=O)(=O)c1ccc(Oc2ncnc3c2cnn3C2CCN(C(=O)c3cccs3)CC2)cc1` [Example 155, {4-[4-(4-Methanesulfonyl-phenoxy)-pyrazolo[3,4-d]pyrimidin-1-yl]-piperidin-1-yl}-thiophen-2-yl-methanone] had an EC50 of 1.6 µM. `CS(=O)(=O)c1ccc(Oc2ncnc3c2cnn3C2CCN(C(=O)OCC(Cl)(Cl)Cl)CC2)cc1` [Example 115, 4-[4-(4-Methanesulfonyl-phenoxy)-pyrazolo[3,4-d]pyrimidin-1-yl]-piperidine-1-carboxylic acid 2,2,2-trichloro-ethyl ester] registered an EC50 of 0.018 µM. In turn, `CC(C)(C)OC(=O)N1CCC(n2ncc3c(N4CCc5cc(S(C)(=O)=O)ccc54)ncnc32)CC1` [Example 10, 4-[4-(5-Methanesulfonyl-2,3-dihydro-indol-1-yl)-pyrazolo[3,4-d]pyrimidin-1-yl]-piperidine-1-carboxylic acid tert-butyl ester] showed an EC50 of 0.46 µM. Under `CS(=O)(=O)c1ccc(Oc2ncnc3c2cnn3C2CCN(C(=O)OC3CCCC3)CC2)c(F)c1` [Example 120, 4-[4-(2-Fluoro-4-methanesulfonyl-phenoxy)-pyrazolo[3,4-d]pyrimidin-1-yl]-piperidine-1-carboxylic acid cyclopentyl ester] stands 0.031 µM; under `CC(OC(=O)N1CCC(n2ncc3c(Oc4ccc(S(C)(=O)=O)cc4)ncnc32)CC1)C(F)(F)F` (centres unmarked) [Example 110, 4-[4-(4-Methanesulfonyl-phenoxy)-pyrazolo[3,4-d]pyrimidin-1-yl]-piperidine-1-carboxylic acid 2,2,2-trifluoro-1-methyl-ethyl ester], 1 µM; under `Cc1nc(Oc2ccc(S(C)(=O)=O)cc2)c2cnn(C3CCN(C(=O)OC(C)(C)C)CC3)c2n1` [Example 175, 4-[4-(4-Methanesulfonyl-phenoxy)-6-methyl-pyrazolo[3,4-d]pyrimidin-1-yl]-piperidine-1-carboxylic acid tert-butyl ester], 0.028 µM.

`CC(C)(C)C(=O)N1CCC(n2ncc3c(Oc4cc(F)c(F)cc4F)ncnc32)CC1` [Example 137, 2,2-Dimethyl-1-{4-[4-(2,4,5-trifluoro-phenoxy)-pyrazolo[3,4-d]pyrimidin-1-yl]-piperidin-1-yl}-propan-1-one] had an EC50 of 1.6 µM. As for `CCOc1ccc(Oc2ncnc3c2cnn3C2CCN(C(=O)OC(C)C)CC2)c(F)c1` [Example 18, 4-[4-(4-Ethoxy-2-fluoro-phenoxy)-pyrazolo[3,4-d]pyrimidin-1-yl]-piperidine-1-carboxylic acid isopropyl ester], the EC50 came out at 0.38 µM. As for `CS(=O)(=O)c1ccc(Oc2ncnc3c2cnn3C2CCN(Cc3ccc4c(c3)OC(F)(F)O4)CC2)cc1` [Example 163, 1-[1-(2,2-Difluoro-benzo[1,3]dioxol-5-ylmethyl)-piperidin-4-yl]-4-(4-methanesulfonyl-phenoxy)-1H-pyrazolo[3,4-d]pyrimidine], the EC50 worked out at 0.14 µM. For the molecule `CC(C)c1noc(N2CCC(n3ncc4c(Oc5ccc(S(C)(=O)=O)cc5F)ncnc43)CC2)n1` [Example 127, 4-(2-Fluoro-4-methanesulfonyl-phenoxy)-1-[1-(3-isopropyl-[1,2,4]oxadiazol-5-yl)-piperidin-4-yl]-1H-pyrazolo[3,4-d]pyrimidine], the EC50 is 0.068 µM. Molecule `CC(=O)c1ccc(Oc2ncnc3c2cnn3C2CCN(C(=O)OC(C)(C)C)CC2)cc1C` [Example 65, 4-[4-(4-Acetyl-3-methyl-phenoxy)-pyrazolo[3,4-d]pyrimidin-1-yl]-piperidine-1-carboxylic acid tert-butyl ester] had an EC50 of 0.31 µM. `CC(C)(C)OC(=O)N1CCC(n2ncc3c(Oc4ccc5c(c4)OCO5)ncnc32)CC1` [Example 41, 4-[4-(Benzo[1,3]dioxol-5-yloxy)-pyrazolo[3,4-d]pyrimidin-1-yl]-piperidine-1-carboxylic acid tert-butyl ester] showed an EC50 of 0.29 µM.

In turn, `CC(C)(C)OC(=O)N1CCC(n2ncc3c(Nc4ccc(S(C)(=O)=O)cc4)ncnc32)CC1` [Example 5, 4-[4-(4-Methanesulfonyl-phenylamino)-pyrazolo[3,4-d]pyrimidin-1-yl]-piperidine-1-carboxylic acid tert-butyl ester] displayed an EC50 of 1.5 µM. Molecule `CC(C)(C)OC(=O)N1CCC(n2ncc3c(Oc4cc(F)cc(C(F)(F)F)c4)ncnc32)CC1` [Example 53, 4-[4-(3-Fluoro-5-trifluoromethyl-phenoxy)-pyrazolo[3,4-d]pyrimidin-1-yl]-piperidine-1-carboxylic acid tert-butyl ester] yielded an EC50 of 0.49 µM.

As for `CC(C)(C)OC(=O)N1CCC(n2ncc3c(Oc4ccc(Br)cc4C#N)ncnc32)CC1` [Example 52, 4-[4-(4-Bromo-2-cyano-phenoxy)-pyrazolo[3,4-d]pyrimidin-1-yl]-piperidine-1-carboxylic acid tert-butyl ester], a half-maximal effect (EC50) was put at 0.75 µM. Then `CS(=O)(=O)c1ccc(Oc2ncnc3c2cnn3C2CCN(C(=O)C3CCCC3)CC2)cc1` [Example 141, Cyclopentyl-{4-[4-(4-methanesulfonyl-phenoxy)-pyrazolo[3,4-d]pyrimidin-1-yl]-piperidin-1-yl}-methanone], with 0.42 µM. In turn, `Cc1nc(-n2cncn2)ccc1Oc1ncnc2c1cnn2C1CCN(C(=O)OC(C)(C)C)CC1` [Example 101, 4-[4-(2-Methyl-6-[1,2,4]triazol-1-yl-pyridin-3-yloxy)-pyrazolo[3,4-d]pyrimidin-1-yl]-piperidine-1-carboxylic acid tert-butyl ester] showed an EC50 of 0.36 µM. As to `COc1ccc(Oc2ncnc3c2cnn3C2CCN(C(=O)OC(C)(C)C)CC2)cn1` [Example 96, 4-[4-(6-Methoxy-pyridin-3-yloxy)-pyrazolo[3,4-d]pyrimidin-1-yl]-piperidine-1-carboxylic acid tert-butyl ester], the EC50 was 1.5 µM.

With `CC[C@@H](C)OC(=O)N1CCC(n2ncc3c(Oc4ccc(S(C)(=O)=O)cc4)ncnc32)CC1` [Example 105, 4-[4-(4-Methanesulfonyl-phenoxy)-pyrazolo[3,4-d]pyrimidin-1-yl]-piperidine-1-carboxylic acid (R)-sec-butyl ester], the EC50 was 0.15 µM. On to `CC(C)(C)OC(=O)N1CCC(n2ncc3c(Oc4ccc(S(C)(=O)=O)c(F)c4)ncnc32)CC1` [Example 61, 4-[4-(3-Fluoro-4-methanesulfonyl-phenoxy)-pyrazolo[3,4-d]pyrimidin-1-yl]-piperidine-1-carboxylic acid tert-butyl ester], for which the EC50 was determined as 0.095 µM. Then `CC(C)(C)OC(=O)N1CCC(n2ncc3c(Nc4cc(F)c(F)cc4F)ncnc32)CC1` [Example 4, 4-[4-(2,4,5-Trifluoro-phenylamino)-pyrazolo[3,4-d]pyrimidin-1-yl]-piperidine-1-carboxylic acid tert-butyl ester], with 0.53 µM; and `CC(C)(C)OC(=O)N1CCC(n2ncc3c(Oc4ccc(Cl)cc4C#N)ncnc32)CC1` [Example 51, 4-[4-(4-Chloro-2-cyano-phenoxy)-pyrazolo[3,4-d]pyrimidin-1-yl]-piperidine-1-carboxylic acid tert-butyl ester], with 0.11 µM; and `CC(C)(C)OC(=O)N1CCC(n2ncc3c(Oc4ccc5sccc5c4)ncnc32)CC1` [Example 77, 4-[4-(Benzo[b]thiophen-5-yloxy)-pyrazolo[3,4-d]pyrimidin-1-yl]-piperidine-1-carboxylic acid tert-butyl ester], with 0.99 µM. In the case of `CS(=O)(=O)c1ccc(Oc2ncnc3c2cnn3C2CCN(C(=O)c3nc4ccccc4s3)CC2)cc1` [Example 156, Benzothiazol-2-yl-{4-[4-(4-methanesulfonyl-phenoxy)-pyrazolo[3,4-d]pyrimidin-1-yl]-piperidin-1-yl}-methanone], the EC50 was 0.16 µM. Molecule `Cc1nc(Cl)ccc1Oc1ncnc2c1cnn2C1CCN(C(=O)OC(C)(C)C)CC1` [Example 97, 4-[4-(6-Chloro-2-methyl-pyridin-3-yloxy)-pyrazolo[3,4-d]pyrimidin-1-yl]-piperidine-1-carboxylic acid tert-butyl ester] gave an EC50 of 0.53 µM. On to `Cc1ncccc1Oc1ncnc2c1cnn2C1CCN(C(=O)OC2CCCC2)CC1` [Example 121, 4-[4-(2-Methyl-pyridin-3-yloxy)-pyrazolo[3,4-d]pyrimidin-1-yl]-piperidine-1-carboxylic acid cyclopentyl ester], for which a half-maximal effect (EC50) was put at 0.26 µM.

Consider `CC(C)(C)COC(=O)N1CCC(n2ncc3c(Oc4ccc(S(C)(=O)=O)cc4)ncnc32)CC1` [Example 108, 4-[4-(4-Methanesulfonyl-phenoxy)-pyrazolo[3,4-d]pyrimidin-1-yl]-piperidine-1-carboxylic acid 2,2-dimethyl-propyl ester], for which the EC50 was found to be 0.1 µM.

For the origin of these results see patent US8188098B2, “GPR119 receptor agonists” (Hoffmann-La Roche Inc., priority 2008, dated 2012).
